The source of these data is paper PMC10882719 (Frontiers in Neuroscience, 2024).

For one test, the target named is T1, 5HT2C receptor (Homo sapiens, UniProt P28335).
T1 construct: β-galactosidase enzyme fragment (enzyme fragment complementation reporter); host or cells: PathHunter cell lines
T1 sequence (P28335 33-458): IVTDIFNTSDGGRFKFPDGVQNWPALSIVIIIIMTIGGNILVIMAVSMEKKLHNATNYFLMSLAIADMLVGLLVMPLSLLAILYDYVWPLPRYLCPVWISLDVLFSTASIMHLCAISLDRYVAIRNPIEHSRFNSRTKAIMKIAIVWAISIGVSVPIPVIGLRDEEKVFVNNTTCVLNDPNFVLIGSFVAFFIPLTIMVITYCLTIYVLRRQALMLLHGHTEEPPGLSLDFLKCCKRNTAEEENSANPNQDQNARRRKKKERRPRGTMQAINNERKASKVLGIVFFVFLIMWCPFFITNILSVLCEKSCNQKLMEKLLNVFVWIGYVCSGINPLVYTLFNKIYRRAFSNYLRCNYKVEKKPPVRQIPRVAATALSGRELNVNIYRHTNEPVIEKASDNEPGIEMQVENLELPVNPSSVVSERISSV
In words: GPCRmax screen, antagonist mode, 5HT2C. The test is classed as cell-based. The note with it: for % Antagonist Activity: HTR2C. On the procedure:
(§1) Studies were performed at Eurofins DiscoverX Corporation (Fremont, CA) using the GPCRmax assay according to the manufacturer’s protocols. […] Activity greater than 30% typically indicates agonist activity and inhibition greater than 50% indicates antagonist activity. This assay uses enzyme fragment complementation with […] as the functional reporter. When a GPCR is activated, […] is recruited and the reporter is detectable. GPCRmax offers a high-throughput screen of 168 GPCRs for agonist or antagonist activity. Briefly, PathHunter cell lines were propagated, seeded into 384-well microplates and incubated at 37°C. […] Microplates were read following signal generation with a PerkinElmer Envision™ instrument for chemiluminescent signal detection. Compound activity was analyzed using CBIS data analysis suite (ChemInnovation, CA) to determine raw values (RLU). For agonist mode assay, percentage activity was calculated using the following formula: % Activity =100% × (mean RLU of test sample - mean RLU of vehicle control) / (mean MAX control ligand - mean RLU of vehicle control). For antagonist mode assay, percentage inhibition was calculated using the following formula: % Inhibition =100% × (1 - (mean RLU of test sample - mean RLU of vehicle control) / (mean RLU of EC80 control - mean RLU of vehicle control)).

Test [1] concerns the target T2, dopamine (DA) transporter (DAT) (Rattus norvegicus, UniProt P23977).
T2 construct: Rat brains were dissected and tissue was homogenized in cold lysis buffer; from tissue; host or cells: rat brain membrane preparation
Nature of the test: Competitive radioligand binding, [3H]WIN35428, rat brain membranes. Here is the method:
All studies were performed at Gifford Bioscience, Ltd. (Birmingham, UK) according to standard protocols.
Radioligands used were: [^3H] Citalopram (PerkinElmer NET1039250UC); [^3H] Nisoxetine (PerkinElmer NET1084250UC); [^3H] WIN35428 (PerkinElmer NET1033250UC). Nonspecific compounds used were Citalopram (Tocris Bioscience 1,427); JHW007 (Tocris Bioscience 4,351); Nomifensine (Abcam ab146004). […] Rat brains were dissected and tissue was homogenized in cold lysis buffer, centrifuged at 100xg for 2 min and the supernatant was placed in a fresh tube. Supernatant was centrifuged at 13,000 × g for 10 min at 4°C to re-pellet the cell lysate. The pellet was resuspended in fresh wash buffer (50 mM Tris–HCl; 5 mM MgCl2; 5 mM EDTA) and centrifuged a third time. The pellet was then resuspended in wash buffer containing 10% sucrose as a cryoprotectant, divided into aliquots (0.3 mL) and stored at −80°C. A sample of the homogenate was analyzed for protein content using the Sigma® BCA assay. On the day of the assay, the membrane preparation was thawed and the pellet resuspended in final assay buffer. […] Filters were then dried under a warm air stream, sealed in polyethylene, scintillation cocktail added, and the radioactivity counted in a Wallac® TriLux 1,450 MicroBeta counter. […] Ki was subsequently calculated using the Cheng-Prusoff equation.

Another test has as its target T3, 5HT2A receptor (Homo sapiens, UniProt P28223).
T3 construct: β-galactosidase enzyme fragment (enzyme fragment complementation reporter); host or cells: PathHunter cell lines
In words: GPCRmax screen, agonist mode, 5HT2A. The test is classed as cell-based. The conditions noted are these: for % Agonist Activity: HTR2A. Here is the method: as §1

Test [2] deals with frontal cortex gene expression. Nature of the test: RNA-seq differential gene expression, frontal cortex. The test is classed as in vivo, rat. The conditions noted are these: 10 mg/kg IP, 8 h; for Number of genes significantly regulated: vs vehicle.
In test [3] the test system is immobility in the forced swim test. More on the design: method as in Warner-Schmidt et al., 2022. The note with it: rats, ref Warner-Schmidt et al., 2022, cited from earlier work.
Test [4] deals with myelin basic protein (MBP). Nature of the test: Immunohistochemistry of myelin basic protein in brain. The class given is in vivo, rat. The note with it: 10 mg/kg IP, 24 h, vs vehicle. Here is the method:
The in-life portion of the study was conducted at WuXi Apptec (Cranbury, NJ). Sectioning and staining of brains took place at Neuroscience Associates (NSA, Knoxville, TN). […] Brains were post-fixed in PFA before shipment to NSA for processing and staining. Hemisected brains were mounted, sectioned and stained using standard protocols with myelin-basic protein primary antibody (MBP SMI-99, 1:5000, Biolegend, San Diego, CA) and anti-mouse biotinylated secondary antibody (BA-2001, Vector Laboratories, Newark, CA). Slides were imaged using a Huron Digital Pathology TissueScope LE120 whole slide scanning system. 20x objective was used with a 0.4um/pixel resolution.

Read-outs that look alike come from different tables or passages of the source.

T3 sequence (P28223 whole entry, the tested form may be a part): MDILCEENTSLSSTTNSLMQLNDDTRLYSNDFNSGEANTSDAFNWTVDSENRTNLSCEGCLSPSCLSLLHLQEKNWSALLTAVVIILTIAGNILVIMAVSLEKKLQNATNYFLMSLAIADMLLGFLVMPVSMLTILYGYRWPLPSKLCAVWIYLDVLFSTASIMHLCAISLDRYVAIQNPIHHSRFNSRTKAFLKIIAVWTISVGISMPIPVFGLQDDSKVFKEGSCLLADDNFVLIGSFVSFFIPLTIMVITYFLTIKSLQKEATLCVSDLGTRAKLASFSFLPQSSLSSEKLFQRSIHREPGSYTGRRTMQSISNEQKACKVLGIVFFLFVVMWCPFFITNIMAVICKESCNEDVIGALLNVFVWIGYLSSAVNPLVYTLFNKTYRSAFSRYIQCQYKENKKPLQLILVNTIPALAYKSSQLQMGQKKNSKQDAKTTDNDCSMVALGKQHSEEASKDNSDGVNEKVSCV
T2 sequence (P23977 whole entry): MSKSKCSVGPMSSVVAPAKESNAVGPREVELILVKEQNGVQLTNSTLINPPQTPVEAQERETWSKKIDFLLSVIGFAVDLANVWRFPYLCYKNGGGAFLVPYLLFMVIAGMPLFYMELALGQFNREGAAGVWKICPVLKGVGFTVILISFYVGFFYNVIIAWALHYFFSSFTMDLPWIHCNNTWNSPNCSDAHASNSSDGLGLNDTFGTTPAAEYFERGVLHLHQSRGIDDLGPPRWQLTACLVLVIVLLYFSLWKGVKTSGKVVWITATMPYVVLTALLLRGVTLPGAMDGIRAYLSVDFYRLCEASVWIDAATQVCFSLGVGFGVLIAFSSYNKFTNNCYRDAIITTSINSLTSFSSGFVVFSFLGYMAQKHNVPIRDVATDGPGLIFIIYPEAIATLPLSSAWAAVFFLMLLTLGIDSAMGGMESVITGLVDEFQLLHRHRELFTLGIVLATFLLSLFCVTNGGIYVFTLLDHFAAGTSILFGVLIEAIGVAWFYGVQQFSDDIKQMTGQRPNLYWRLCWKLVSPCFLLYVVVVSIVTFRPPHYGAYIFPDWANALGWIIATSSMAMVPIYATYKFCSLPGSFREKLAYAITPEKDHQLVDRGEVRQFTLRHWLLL

By Ki is commonly meant a measure of affinity in units of concentration, obtained from inhibition or displacement. Turning to `CNC(C)C(=O)c1ccc2c(c1)OCO2` (stereo not drawn) [methylone], the “% Antagonist Activity” value on 5HT2C receptor (1 uM) was 21.1%. Besides, the “% Antagonist Activity” value at 5HT2C receptor (10 uM) worked out at 24.2%. Also, the inhibition constant Ki in test [1] stood at 5.73 µM. Further, the “% Agonist Activity” value at 5HT2A receptor (1 uM) was -0.1%. Further, on 5HT2A receptor (10 uM), the “% Agonist Activity” value is 1.4%. In addition, in test [2] (RNA-seq), the “Induction of BDNF, increase compared with controls” value was ~ 60%. The “Number of genes significantly regulated” value in test [2] (frontal cortex) is 480 genes. Further, the “Reduction in immobility in the forced swim test” value in test [3] (30 min after a single human equivalent dose of 100–150 mg) is given as 95–98%. In addition, the “Duration of reduction in immobility post-dose” value in test [3] (single dose) is reported as “at least 72 h”. In test [4], the “MBP expression, basolateral nucleus of the amygdala” value is listed as “significant reduction”; the “MBP expression, central nucleus of the amygdala” value is “significant reduction”; the “MBP expression, cortex (control region)” value is given as “No change”.
As for `CNC(C)Cc1ccc2c(c1)OCO2` (stereo not drawn) [MDMA, 3,4-Methylenedioxy methamphetamine, reference compound], the “% antagonist activity (inhibition), 5HT2C” value on 5HT2C receptor (Figure 2B, threshold 50% inhibition) was determined as 52.2%. In addition, the “% Antagonist Activity” value at 5HT2C receptor (1 uM) amounted to 22.5%. Moreover, at 5HT2C receptor (10 uM), the “% Antagonist Activity” value stood at 52.2%. Moreover, in test [1] (read-out: Ki, DAT, competitive radioligand binding, rat brain membranes, Cheng-Prusoff), the Ki is 5.11 µM. For the same compound, the “% agonist activity, 5HT2A” value on 5HT2A receptor (10 μM, cutoff 30% activity) is 27.5%. Further, at 5HT2A receptor (1 uM), the “% Agonist Activity” value amounted to 4.9%. Moreover, the “% Agonist Activity” value at 5HT2A receptor (10 uM) is recorded as 27.5%. In test [2] (frontal cortex), the “More genes significantly regulated compared to methylone” value is given as ~ 72% and the “Number of genes significantly regulated” value stood at 825 genes. Besides, in test [4], the “MBP expression, basolateral nucleus of the amygdala” value is on record as “significant reduction”; the “MBP expression, central nucleus of the amygdala” value is listed as “significant reduction”; the “MBP expression, cortex (control region)” value is given as “No change”.
